Experimental findings from ChEMBL document CHEMBL1147306, “Studies on inhibitors of skin tumor promotion, VI. Inhibitory effects of quinones on Epstein-Barr virus activation” (J Nat Prod, 1989) are described below.

Tested on in the first data set: not listed separately
The experiment in a line: Cytotoxicity against human Raji cells assessed as cell viability at 10 molar ratio. Format: cell-based. Conditions: read-out: Activity.
As for `COc1cccc2c1C(=O)c1ncc(C)cc1C2=O`, the viability at 10 molar ratio was greater than 80%.

On to `Cc1ccnc2c1C(=O)c1cccc(O)c1C2=O`, for which the viability at 10 molar ratio was greater than 80%.

With `O=C1c2cccc(O)c2C(=O)c2c(O)cccc21` [DANTHRON], the viability at 10 molar ratio was greater than 80%.

For the compound `COc1ccc2c(c1)C(=O)c1ccc3c(c1C2=O)OCO3`, the viability at 10 molar ratio was greater than 80%.

Turning to `O=C1c2ccccc2C(=O)c2occc21`, the viability at 10 molar ratio was 70%.

As to `CN(C)C1=CC(=O)c2cccc(O)c2C1=O`, the viability at 10 molar ratio is greater than 80%.

Take `Cc1cnc2c(c1)C(=O)c1ccccc1C2=O`: the viability at 10 molar ratio was greater than 80%.

For the compound `COCc1c(O)cc2c(c1O)C(=O)c1cccc(O)c1C2=O`, the viability at 10 molar ratio was greater than 80%.

With `CC1=CC(=O)c2ccccc2C1=O` [MENADIONE], the viability at 10 molar ratio is greater than 80%.

Take `O=C1c2ccccc2-c2ncccc21`: the viability at 10 molar ratio was greater than 80%.

Take `O=C1c2ccccc2C(=O)c2cnccc21`: the viability at 10 molar ratio is greater than 80%.

Take `CN(C)C1=CC(=O)c2cc(O)ccc2C1=O`: the viability at 10 molar ratio is greater than 80%.

On to `O=C1c2ccccc2C(=O)c2c(O)c(O)cc(O)c21` [PURPURIN], for which the viability at 10 molar ratio was greater than 80%.

Another data set concerns Raji. Description: Inhibition of TPA-induced EBV-early antigen activation in human Raji cells at 500 molar ratio after 48 hrs by indirect immunofluorescence technique relative to TPA. Format: cell-based. Particulars: human gammaherpesvirus 4.
For the compound `COc1cccc2c1C(=O)c1ncc(C)cc1C2=O`, the EBV-EA activation % of TPA control is 83%.

For the compound `Cc1ccnc2c1C(=O)c1cccc(O)c1C2=O`, the EBV-EA activation % of TPA control was found to be 15.4%.

`O=C1c2cccc(O)c2C(=O)c2c(O)cccc21` [DANTHRON]: the EBV-EA activation % of TPA control was determined as 61.9%.

For `COc1ccc2c(c1)C(=O)c1ccc3c(c1C2=O)OCO3`, the EBV-EA activation % of TPA control was 56.8%.

As for `O=C1c2ccccc2C(=O)c2occc21`, the EBV-EA activation % of TPA control turned out to be 0%.

Consider `CN(C)C1=CC(=O)c2cccc(O)c2C1=O`, for which the EBV-EA activation % of TPA control stood at 53.8%.

As to `Cc1cnc2c(c1)C(=O)c1ccccc1C2=O`, the EBV-EA activation % of TPA control was 48.7%.

As for `COCc1c(O)cc2c(c1O)C(=O)c1cccc(O)c1C2=O`, the EBV-EA activation % of TPA control stood at 21%.

Regarding `CC1=CC(=O)c2ccccc2C1=O` [MENADIONE], the EBV-EA activation % of TPA control stood at 0%.

Regarding `O=C1c2ccccc2-c2ncccc21`, the EBV-EA activation % of TPA control amounted to 97.6%.

On to `O=C1c2ccccc2C(=O)c2cnccc21`, for which the EBV-EA activation % of TPA control amounted to 13%.

Turning to `CN(C)C1=CC(=O)c2cc(O)ccc2C1=O`, the EBV-EA activation % of TPA control was 68.5%.

Take `O=C1c2ccccc2C(=O)c2c(O)c(O)cc(O)c21` [PURPURIN]: the EBV-EA activation % of TPA control worked out at 54.3%.

For another data set, the system named is Raji. Description: Inhibition of TPA-induced EBV-early antigen activation in human Raji cells at 10 molar ratio after 48 hrs by indirect immunofluorescence technique relative to TPA. The class given is cell-based. Conditions: human gammaherpesvirus 4.
Turning to `COc1cccc2c1C(=O)c1ncc(C)cc1C2=O`, the EBV-EA activation % of TPA control turned out to be 100%.

Turning to `Cc1ccnc2c1C(=O)c1cccc(O)c1C2=O`, the EBV-EA activation % of TPA control is 89.1%.

On to `O=C1c2cccc(O)c2C(=O)c2c(O)cccc21` [DANTHRON], for which the EBV-EA activation % of TPA control worked out at 94.2%.

As for `COc1ccc2c(c1)C(=O)c1ccc3c(c1C2=O)OCO3`, the EBV-EA activation % of TPA control came out at 100%.

Take `O=C1c2ccccc2C(=O)c2occc21`: the EBV-EA activation % of TPA control came to 59.4%.

Take `CN(C)C1=CC(=O)c2cccc(O)c2C1=O`: the EBV-EA activation % of TPA control was 100%.

In the case of `Cc1cnc2c(c1)C(=O)c1ccccc1C2=O`, the EBV-EA activation % of TPA control was found to be 100%.

For `COCc1c(O)cc2c(c1O)C(=O)c1cccc(O)c1C2=O`, the EBV-EA activation % of TPA control was found to be 100%.

Take `CC1=CC(=O)c2ccccc2C1=O` [MENADIONE]: the EBV-EA activation % of TPA control amounted to 89.4%.

With `O=C1c2ccccc2-c2ncccc21`, the EBV-EA activation % of TPA control was 100%.

`O=C1c2ccccc2C(=O)c2cnccc21`: the EBV-EA activation % of TPA control came out at 100%.

Take `CN(C)C1=CC(=O)c2cc(O)ccc2C1=O`: the EBV-EA activation % of TPA control was found to be 100%.

For the compound `O=C1c2ccccc2C(=O)c2c(O)c(O)cc(O)c21` [PURPURIN], the EBV-EA activation % of TPA control worked out at 100%.

Tested on in the next data set: not listed separately
The experiment in a line: Cytotoxicity against human Raji cells assessed as cell viability at 1000 molar ratio. The class given is cell-based. Particulars: read-out: Activity.
With `COc1cccc2c1C(=O)c1ncc(C)cc1C2=O`, the viability at 1000 molar ratio was greater than 80%.

Take `Cc1ccnc2c1C(=O)c1cccc(O)c1C2=O`: the viability at 1000 molar ratio was found to be 40%.

In the case of `O=C1c2cccc(O)c2C(=O)c2c(O)cccc21` [DANTHRON], the viability at 1000 molar ratio is greater than 80%.

Consider `COc1ccc2c(c1)C(=O)c1ccc3c(c1C2=O)OCO3`, for which the viability at 1000 molar ratio is 70%.

In the case of `O=C1c2ccccc2C(=O)c2occc21`, the viability at 1000 molar ratio turned out to be 0%.

As for `CN(C)C1=CC(=O)c2cccc(O)c2C1=O`, the viability at 1000 molar ratio is greater than 80%.

On to `Cc1cnc2c(c1)C(=O)c1ccccc1C2=O`, for which the viability at 1000 molar ratio came to 70%.

For `COCc1c(O)cc2c(c1O)C(=O)c1cccc(O)c1C2=O`, the viability at 1000 molar ratio was greater than 80%.

As to `CC1=CC(=O)c2ccccc2C1=O` [MENADIONE], the viability at 1000 molar ratio is 0%.

For `O=C1c2ccccc2-c2ncccc21`, the viability at 1000 molar ratio was determined as 70%.

For `O=C1c2ccccc2C(=O)c2cnccc21`, the viability at 1000 molar ratio turned out to be 10%.

`CN(C)C1=CC(=O)c2cc(O)ccc2C1=O`: the viability at 1000 molar ratio was 60%.

Take `O=C1c2ccccc2C(=O)c2c(O)c(O)cc(O)c21` [PURPURIN]: the viability at 1000 molar ratio was 70%.

Another data set deals with Raji. The experiment in a line: Inhibition of TPA-induced EBV-early antigen activation in human Raji cells at 100 molar ratio after 48 hrs by indirect immunofluorescence technique relative to TPA. The class given is cell-based. Particulars: human gammaherpesvirus 4.
For `COc1cccc2c1C(=O)c1ncc(C)cc1C2=O`, the EBV-EA activation % of TPA control amounted to 100%.

With `Cc1ccnc2c1C(=O)c1cccc(O)c1C2=O`, the EBV-EA activation % of TPA control worked out at 67.4%.

As for `O=C1c2cccc(O)c2C(=O)c2c(O)cccc21` [DANTHRON], the EBV-EA activation % of TPA control came out at 71.2%.

Take `COc1ccc2c(c1)C(=O)c1ccc3c(c1C2=O)OCO3`: the EBV-EA activation % of TPA control came out at 78.9%.

With `O=C1c2ccccc2C(=O)c2occc21`, the EBV-EA activation % of TPA control was 0%.

Turning to `CN(C)C1=CC(=O)c2cccc(O)c2C1=O`, the EBV-EA activation % of TPA control was 89.7%.

With `Cc1cnc2c(c1)C(=O)c1ccccc1C2=O`, the EBV-EA activation % of TPA control turned out to be 76.5%.

In the case of `COCc1c(O)cc2c(c1O)C(=O)c1cccc(O)c1C2=O`, the EBV-EA activation % of TPA control was determined as 51.8%.

Consider `CC1=CC(=O)c2ccccc2C1=O` [MENADIONE], for which the EBV-EA activation % of TPA control is 65.7%.

With `O=C1c2ccccc2-c2ncccc21`, the EBV-EA activation % of TPA control is 100%.

With `O=C1c2ccccc2C(=O)c2cnccc21`, the EBV-EA activation % of TPA control stood at 69.5%.

As for `CN(C)C1=CC(=O)c2cc(O)ccc2C1=O`, the EBV-EA activation % of TPA control amounted to 100%.

For `O=C1c2ccccc2C(=O)c2c(O)c(O)cc(O)c21` [PURPURIN], the EBV-EA activation % of TPA control was 100%.

Tested on in a further data set: not listed separately
The experiment in a line: Cytotoxicity against human Raji cells assessed as cell viability at 500 molar ratio. The class given is cell-based. Particulars: read-out: Activity.
As for `COc1cccc2c1C(=O)c1ncc(C)cc1C2=O`, the viability at 500 molar ratio was greater than 80%.

For the compound `Cc1ccnc2c1C(=O)c1cccc(O)c1C2=O`, the viability at 500 molar ratio amounted to 60%.

Consider `O=C1c2cccc(O)c2C(=O)c2c(O)cccc21` [DANTHRON], for which the viability at 500 molar ratio is greater than 80%.

Take `COc1ccc2c(c1)C(=O)c1ccc3c(c1C2=O)OCO3`: the viability at 500 molar ratio was greater than 80%.

Consider `O=C1c2ccccc2C(=O)c2occc21`, for which the viability at 500 molar ratio turned out to be 10%.

Regarding `CN(C)C1=CC(=O)c2cccc(O)c2C1=O`, the viability at 500 molar ratio is greater than 80%.

On to `Cc1cnc2c(c1)C(=O)c1ccccc1C2=O`, for which the viability at 500 molar ratio was greater than 80%.

As to `COCc1c(O)cc2c(c1O)C(=O)c1cccc(O)c1C2=O`, the viability at 500 molar ratio was greater than 80%.

Regarding `CC1=CC(=O)c2ccccc2C1=O` [MENADIONE], the viability at 500 molar ratio was 0%.

On to `O=C1c2ccccc2-c2ncccc21`, for which the viability at 500 molar ratio was greater than 80%.

For `O=C1c2ccccc2C(=O)c2cnccc21`, the viability at 500 molar ratio was found to be 10%.

For `CN(C)C1=CC(=O)c2cc(O)ccc2C1=O`, the viability at 500 molar ratio is greater than 80%.

For `O=C1c2ccccc2C(=O)c2c(O)c(O)cc(O)c21` [PURPURIN], the viability at 500 molar ratio is greater than 80%.

Tested on in the next data set: not listed separately
The experiment in a line: Cytotoxicity against human Raji cells assessed as cell viability at 100 molar ratio. Format: cell-based. Conditions: read-out: Activity.
`COc1cccc2c1C(=O)c1ncc(C)cc1C2=O`: the viability at 100 molar ratio is greater than 80%.

As to `Cc1ccnc2c1C(=O)c1cccc(O)c1C2=O`, the viability at 100 molar ratio is greater than 80%.

Turning to `O=C1c2cccc(O)c2C(=O)c2c(O)cccc21` [DANTHRON], the viability at 100 molar ratio is greater than 80%.

Consider `COc1ccc2c(c1)C(=O)c1ccc3c(c1C2=O)OCO3`, for which the viability at 100 molar ratio is greater than 80%.

As for `O=C1c2ccccc2C(=O)c2occc21`, the viability at 100 molar ratio is 10%.

In the case of `CN(C)C1=CC(=O)c2cccc(O)c2C1=O`, the viability at 100 molar ratio is greater than 80%.

Regarding `Cc1cnc2c(c1)C(=O)c1ccccc1C2=O`, the viability at 100 molar ratio was greater than 80%.

In the case of `COCc1c(O)cc2c(c1O)C(=O)c1cccc(O)c1C2=O`, the viability at 100 molar ratio is greater than 80%.

For the compound `CC1=CC(=O)c2ccccc2C1=O` [MENADIONE], the viability at 100 molar ratio is 70%.

As to `O=C1c2ccccc2-c2ncccc21`, the viability at 100 molar ratio was greater than 80%.

In the case of `O=C1c2ccccc2C(=O)c2cnccc21`, the viability at 100 molar ratio was greater than 80%.

Regarding `CN(C)C1=CC(=O)c2cc(O)ccc2C1=O`, the viability at 100 molar ratio was greater than 80%.

Turning to `O=C1c2ccccc2C(=O)c2c(O)c(O)cc(O)c21` [PURPURIN], the viability at 100 molar ratio is greater than 80%.
